# Source: patent publication US11590117B2, “Treatment of a hematologic malignancy with 2-(4-chlorophenyl)-n-((2-(2,6-dioxopiperidin-3-yl)-1-oxoisoindolin-5-yl)methyl)-2,2-difluoroacetamide” (priority 2016, dated 2023)
# pIC50: −log10 of the molar value. Several values for one entry are separate records, joined by “and”; a condition that tells them apart may be missing. Equal entries are not always repeated.
# Columns and labels:
# [1] = test system: Bone marrow mononuclear cells (BMMCs) from high risk MDS patients; assay: MDS liquid culture, viable cell counting; assay type: cell-based, human; settings: 24 hours exposure, 37, 111, 333 and 1000 nM, dose dependent, maintained at least a week
# Description: Methods. The effect of Compound 1 on high risk MDS samples was measured in an in vitro liquid culture as well as by colony assays in order to better define its effect on stem/progenitor cells. Bone marrow mononuclear cells (BMMCs) from high risk MDS patients were cultured in vitro in CellGro medium (GellGenix) supplemented with hLDL (40 μg/mL), SCF (50 ng/mL), FLT3 […] (50 ng/mL), IL-3 (10 ng/mL), IL-6 (25 ng/mL) and TPO (100 ng/mL), all from Peprotech. During culture, cells were exposed to different concentrations of Compound 1 (37, 111, 333 and 1000 nM) or DMSO control. After 24 hours, cells were washed twice to remove compound and maintained in culture up to one week, performing viable cell counting on days 1, 3 and 7. Just after compound washout, […] per condition were collected for colony forming assays and another […] were stained for intracellular flow cytometry.
# [2] = test system: CFU-GM (granulocyte/monocyte progenitors); assay: Colony forming assay, bone marrow CD34+ cells in MethoCult; assay type: cell-based, human
# Description: Experimental design: human bone marrow (BM) CD34+ cells were used to evaluate the potential for BM toxicity induced by Compound 1. In order to test the effects of Compound 1 on the functionality of hematopoietic progenitors, colony forming assays were done by seeding BM CD34+ cells on MethoCult medium. Cells were seeded directly in MethoCult with Compound 1 or cultured in liquid medium with Compound 1 for 2, 4, or 8 hours and then seeded in compound-free MethoCult to evaluate the effect of different exposure times. Early apoptosis induced by Compound 1 on HSC was analyzed by flow cytometry.
# Results. Colony forming units (CFU) of common granulocyte/erythrocyte/monocyte/megakaryocyte (CFU-GEMM), CFU of granulocyte/monocyte (CFU-GM), burst forming unit of erythrocytes (BFU-E), and CFU of erythrocytes (CFU-E) in cultures exposed to Compound 1 or DMSO were scored on STEMvision.
# Bone marrow CD34+ cells from normal donors were incubated with Compound 1 in MethoCult medium. Colony numbers for CFU-GM and BFU-E progenitors were counted using STEMVision automatic colony counting instrument and software and normalized to the colony number of the DMSO control. Results plotted as percentage of DMSO control vs concentration of Compound 1 were used to determine IC50 values. Data are shown as mean standard error of the mean of n=3 technical replicates. Donors were HD10, HD14, HD18, and HD19.
# FIGS. 33A and 33B provide, colony numbers after preincubation of bone marrow CD34+ cells with Compound 1 for 4 or 8 hours, respectively, in Iscove's medium, followed by incubation in MethoCult medium without Compound 1 for 14 days. FIG. 33C provides colony numbers after incubation of bone marrow CD34+ cells in MethoCult medium in continuous presence of Compound 1 for 14 days.
# PBMCs = assay: Flow cytometry viable cell counting, 72 hours; assay type: cell-based; settings: Homo sapiens, PBMC, PBMCs not pre-activated, read-out: cell count IC50
# Description: (§1) The effects of Compound 1 in healthy PBMCs were also assessed. Compound 1 was added to PBMC s from one donor at time zero and assessed at 72 hours. This was compared to PBMCs that were pre-activated and proliferating on anti-CD3 antibody-coated plates for 72 hours before Compound 1 was added and the cells were incubated for an additional 72 hours. HNT-34 cells were used as a sensitive positive control cell line. Peripheral blood mononuclear cells that were pre-activated were resistant to the antiproliferative effects of Compound 1 (IC50>[…]) as determined by CTG and viable cell count. However, Compound 1 did reduce cell proliferation in PBMCs that were not pre-activated, as measured using two methods, CTG and flow cytometry cell counting (CTG IC50=0.1 μM; cell count IC50=0.5 μM). […] Similar or greater differences in Compound 1-induced elevation of caspase 3/7 and membrane depolarization were seen between pre-activated PBMCs and HNT-34 cells.
# HNT-34 = assay: Flow cytometry viable cell counting, 72 hours; assay type: cell-based; settings: Homo sapiens, HNT-34 as sensitive positive control cell line in PBMC comparison, read-out: cell count IC50
# Description: as §1
# EB-1 = assay: CellTiter-Glo (CTG) cell proliferation assay, 72 hours; assay type: cell-based; settings: Homo sapiens, EB1, Burkitt Lymphoma
# Description: (§2) Preparation of Solutions of Test Article: Compounds were plated into black 384-well plates (Corning Inc.) to a final DMSO volume of 0.1% assuming a maximal volume of 50 μL. A 10-point dose response starting at 10 μM with a 1:3 dilution was printed in duplicate by acoustic dispense using the EDC ATS-100 platform.
# (§3) Cell Proliferation Assays: The effect of Compound 1 on the proliferation/viability of the hematological cell lines (Table 1 Table, Table 2 and Table 3), THLE-2, or PBMCs was assessed after 72 hours incubation using CTG (Promega), according to manufacturer's instructions. Hematological cell lines were dispensed into compound plates by a Multidrop™ Combi Reagent Dispenser (Thermo Scientific, Waltham, Mass.) at a concentration of 0.1 to 0.3×10^6 cells per mL in a 50 μL total volume. THLE-2 cells were seeded out at 1000 cells per well in 50 μL volume and incubated for 72 hours. At 72 hours, 25 μL per well of CTG was dispensed by a Multidrop™ Combi Reagent Dispenser and adenosine triphosphate (ATP) release by viable cells was measured as relative luminescence units after 30 minutes using the Envision platform.
# U2932 = assay: as above; assay type: cell-based; settings: Homo sapiens, Diffuse Large B-cell Lymphoma (activated B-cell like)
# Description: as §2, §3
# Ramos = assay: as above; assay type: cell-based; settings: Homo sapiens, Burkitt Lymphoma
# Description: as §2, §3
# HS-Sultan = assay: as above; assay type: cell-based; settings: Homo sapiens, Burkitt Lymphoma
# Description: as §2, §3
# BL-41 = assay: as above; assay type: cell-based; settings: Homo sapiens, Burkitt Lymphoma
# Description: as §2, §3
# MC-116 = assay: as above; assay type: cell-based; settings: Homo sapiens, MC116, Acute Lymphoblastic Leukemia
# Description: as §2, §3
# Blue-1 = assay: as above; assay type: cell-based; settings: Homo sapiens, Burkitt Lymphoma
# Description: as §2, §3
structure (smiles),measurement,setting,value
"O=C1CCC(N2Cc3cc(CNC(=O)C(F)(F)c4ccc(Cl)cc4)ccc3C2=O)C(=O)N1 (stereo not shown) [Compound 1, 2-(4-chlorophenyl)-N-((2-(2,6-dioxopiperidin-3-yl)-1-oxoisoindolin-5-yl)methyl)-2,2-difluoroacetamide]",number of viable cells,[1],significantly reduced
same,Colony Number CFU-GM,"[2]; Donor HD10, 7.4 nM Compound 1, replicate counts",82 and 74
same,Colony Number CFU-GM,"[2]; Donor HD10, 22.2 nM Compound 1, replicate counts",71 and 80
same,Colony Number CFU-GM,"[2]; Donor HD10, 67 nM Compound 1, replicate counts",48 and 61
same,Colony Number CFU-GM,"[2]; Donor HD10, 200 nM Compound 1, replicate counts",2 and 0
same,Colony Number CFU-GM,"[2]; Donor HD10, 600 nM Compound 1, replicate counts",0
same,Colony Number CFU-GM,"[2]; Donor HD14, 7.4 nM Compound 1, replicate counts",15 and 12
same,Colony Number CFU-GM,"[2]; Donor HD14, 22.2 nM Compound 1, replicate counts",16 and 15
same,Colony Number CFU-GM,"[2]; Donor HD14, 67 nM Compound 1, replicate counts",6 and 4
same,Colony Number CFU-GM,"[2]; Donor HD14, 200 nM Compound 1, replicate counts",0
same,Colony Number CFU-GM,"[2]; Donor HD14, 600 nM Compound 1, replicate counts",0
same,Colony Number CFU-GM,"[2]; Donor HD18, 7.4 nM Compound 1, replicate counts",59 and 73
same,Colony Number CFU-GM,"[2]; Donor HD18, 22.2 nM Compound 1, replicate counts",55 and 62
same,Colony Number CFU-GM,"[2]; Donor HD18, 67 nM Compound 1, replicate counts",2 and 6
same,Colony Number CFU-GM,"[2]; Donor HD18, 200 nM Compound 1, replicate counts",0
same,Colony Number CFU-GM,"[2]; Donor HD18, 600 nM Compound 1, replicate counts",0
same,Colony Number CFU-GM,"[2]; Donor HD19, 7.4 nM Compound 1, replicate counts",44 and 70
same,Colony Number CFU-GM,"[2]; Donor HD19, 22.2 nM Compound 1, replicate counts",34 and 35
same,Colony Number CFU-GM,"[2]; Donor HD19, 67 nM Compound 1, replicate counts",4 and 5
same,Colony Number CFU-GM,"[2]; Donor HD19, 200 nM Compound 1, replicate counts",0
same,Colony Number CFU-GM,"[2]; Donor HD19, 600 nM Compound 1, replicate counts",0
same,pIC50,"[2]; Homo sapiens, CFU-GM, CD34+ cells from four healthy donors, Compound 1 in MethoCult, read-out: IC50, inhibition of granulo-monocytic progenitors (CFU-GM)",6.87 to 7.09
same,pIC50,PBMCs,6.30
same,pIC50,HNT-34,8.40
same,pIC50,EB-1,7.18
same,pIC50,U2932,6.04
same,pIC50,Ramos,< 5.00
same,pIC50,HS-Sultan,< 5.00
same,pIC50,BL-41,< 5.00
same,pIC50,MC-116,< 5.00
same,pIC50,Blue-1,6.01
